The record followed here is PubChem BioAssay (NCI).

Holding throughout (assay): NCI tumour cell line growth inhibition, 48 h
For assay [1], the system named is 786-0 renal.
Assay [2] relates to IGROV1 ovarian.
The test system of assay [3] is NCI-H522 lung.
Assay [4] relates to NCI-H460 lung.
The test system of assay [5] is NCI-H23 lung.
Assay [6] concerns SK-MEL-28 melanoma.
The subject of assay [7] is LOX IMVI melanoma.
The subject of assay [8] is ACHN renal.
In assay [9] the test system is SF-268 CNS.
For assay [10], the system named is BT-549 breast.

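In this assay, cells in 96-well plates receive the compound at five concentrations for 48 hours. Endpoints are linearly interpolated between the surrounding concentrations. GI50 is the concentration that inhibits growth by half. TGI: concentration producing complete growth inhibition.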 Bounds are passed on as bounds.

Take `CC(=O)OC[C@]1(O)CC[C@@]23CC1C[C@@H]2CCC1C(C)(C)CCC[C@@]13C` (some centres undefined): the TGI in assay [1] amounted to 31.6 µM; in [2] it was 34.5 µM; in assay [3] it was 14.7 µM; in assay [4] it was 30.2 µM; in assay [5], 26.4 µM; in assay [6], 28.1 µM. Further, the TGI in assay [7] amounted to 23.3 µM; in [8] it was 29.3 µM; in [9], 30.4 µM.
As for `CC1(c2cccc3ccccc23)OC(=O)c2ccccc21` (centres undefined), the TGI in [1] stood at 71.3 µM; in [2], 55.3 µM; in assay [3] it was 61.4 µM; in assay [4], 52.8 µM; in assay [5], 38.1 µM; in [6], 75.8 µM. Moreover, the figures for the TGI in assay [7], in assay [8] and in assay [9] were 42.8 µM, 70.9 µM and 93 µM, respectively.
With `CCn1c(CN2CCN(Cc3ccccc3)CC2)nc2cc(NC(=O)c3cccs3)ccc21`, the GI50 in assay [1] was 21.4 µM; in assay [10] it was 13.4 µM; in [2] it was 26.5 µM; in assay [4], 18.7 µM; in assay [5], 19.9 µM; in [6], 16 µM. In addition, the GI50 in [7] is 19.4 µM; in assay [8] it was 18.7 µM; in assay [9], 25.4 µM. In addition, the TGI is 66.1 µM in [1]; 28.9 µM in assay [10]; 80.3 µM in assay [2]; 42.5 µM in assay [4]; 57 µM in [5]; 34.3 µM in assay [6]. Also, the TGI in assay [7] is 41.7 µM; in assay [8], 75.4 µM; in assay [9], 97.9 µM.
For the molecule `O=C1C(=O)c2ccccc2C(O)=C1CC=C(Br)Br`, the GI50 in assay [1] was 3.99 µM; in [10] it was 11.3 µM; in assay [2] it was 3.91 µM; in [3], 5.28 µM; in assay [4], 0.524 µM; in assay [6], 12.8 µM. For the same molecule, the GI50 was 1.34 µM in assay [7], 4.71 µM in assay [8] and 2.66 µM in assay [9]. Further, the TGI is greater than 100 µM in [1]; 71.9 µM in [10]; 93.8 µM in assay [2]; 29.9 µM in assay [3]; 13.3 µM in assay [4]; greater than 100 µM in assay [6]. Besides, the results for the TGI in assay [7], in assay [8] and in assay [9] were 27.6 µM, 92.3 µM and greater than 100 µM, respectively.
With `CC(=O)[CH-]C(=O)c1ccccc1.CC(=O)[CH-]C(=O)c1ccccc1.CC(C)CCCC(C)[C@H]1CCC2[C@@H]3CC=C4C[C@@H]([O-])CC[C@]4(C)C3CC[C@@]21C.CC[O-].[Ti+4]` (some centres undefined), the GI50 in assay [1] was 35.2 µM; in assay [2], greater than 100 µM; in assay [3], 26.3 µM; in [4], 44.8 µM; in assay [5] it was 26.9 µM; in assay [6] it was 30.3 µM. The GI50 in [7] is 81.1 µM; in assay [8], 61 µM; in assay [9], 50.2 µM. The TGI in assay [1] is greater than 100 µM; in assay [2], greater than 100 µM; in assay [3], 71.2 µM; in assay [4] it was greater than 100 µM; in assay [5], 84.2 µM; in assay [6] it was greater than 100 µM. Moreover, the TGI in [7], in assay [8] and in assay [9] was greater than 100 µM in each case.
Take `Cc1ccc(-n2c3c(c4c(CN(C)C)c(O)ccc42)CCc2ccccc2C3=O)cc1`: the GI50 in [1] was 16.9 µM; in [10], 14.9 µM; in [2] it was 10.8 µM; in assay [3], 14.9 µM; in assay [4] it was 18.3 µM; in [5] it was 14.6 µM. Also, the GI50 in [7] is 15.8 µM; in assay [8] it was 16.3 µM; in [9] it was 19.8 µM. The TGI came to 33.3 µM in [1]; 29.7 µM in assay [10]; 25.8 µM in assay [2]; 32.7 µM in [3]; 41.9 µM in [4]; 29.6 µM in assay [5]. Besides, the values for the TGI in assay [7], in assay [8] and in [9] were 29.5 µM, 36 µM and 50.5 µM, respectively.
`O=C1C(Cl)=C(Nc2cccc(Cl)c2)C(=O)N1Cc1ccccc1Cl`: the GI50 was 1.21 µM in [1]; 4.31 µM in [10]; 12.3 µM in assay [2]; 2.87 µM in [3]; 11.8 µM in assay [4]; 9.95 µM in [6]. Also, the GI50 in [7] is 1.64 µM; in assay [8], 4.36 µM; in assay [9] it was 13.1 µM. The TGI in [1] worked out at 16.3 µM; in assay [10], 26 µM; in assay [2], 73.8 µM; in assay [3], 23.3 µM; in assay [4] it was 27 µM; in assay [6] it was 34.2 µM. The TGI in assay [7] amounted to 3.76 µM; in [8], 17.1 µM; in [9], 36 µM.
Regarding `COc1c(OC)c(OC)c2c(c1OC)c(=O)c1ccccc1n2C`, the TGI in [1], in [10], in assay [2], in assay [3], in assay [5] and in assay [6] was greater than 100 µM throughout. Also, the TGI in assay [7], in [8] and in [9] was greater than 100 µM each time.
As for `BrC1=CC=C2NC=CC3=CC=NC1C32` (centres undefined), the TGI in assay [1] was greater than 100 µM; in assay [2], greater than 100 µM; in [3] it was 27.3 µM; in assay [4] it was 17.9 µM; in assay [5] it was greater than 82.8 µM; in [6] it was greater than 100 µM. Also, the TGI was 21.4 µM in assay [7], greater than 93.8 µM in assay [8] and greater than 92.5 µM in assay [9].
For `COc1cc(/C=C(\C#N)C(=O)c2ccccc2)ccc1O`, the TGI in assay [1], in assay [2], in assay [3], in assay [4], in [5] and in assay [6] was greater than 100 µM each time. The TGI in assay [7], in assay [8] and in assay [9] was greater than 100 µM throughout.
With `CCCCCCCCCCCCCC(=O)CC(=O)c1c(O)cccc1O`, the TGI in [1] is greater than 100 µM; in assay [2] it was greater than 100 µM; in [3] it was 59.1 µM; in [4], 91.9 µM; in assay [5] it was 84.2 µM; in assay [6] it was greater than 100 µM. Moreover, the TGI in assay [7] is 36.3 µM; in [8] it was 74.5 µM; in assay [9], greater than 100 µM.
